Reference: article PMC9005681, “Use of AD Informer Set compounds to explore validity of novel targets in Alzheimer's disease pathology” (Alzheimer's & Dementia : Translational Research & Clinical …, 2022)

Experiments:
Assay in all cases: PDSP GPCR panel primary binding assays at 10 μM
[1] = target: T1, cloned human or rodent CNS receptors, channels, and transporters (PDSP panel) (Homo sapiens, UniProt P08912); settings: Receptor M5, primary assay, 10 μM
T1 construct: expressed in transfected cells
T1 sequence (P08912 1-532): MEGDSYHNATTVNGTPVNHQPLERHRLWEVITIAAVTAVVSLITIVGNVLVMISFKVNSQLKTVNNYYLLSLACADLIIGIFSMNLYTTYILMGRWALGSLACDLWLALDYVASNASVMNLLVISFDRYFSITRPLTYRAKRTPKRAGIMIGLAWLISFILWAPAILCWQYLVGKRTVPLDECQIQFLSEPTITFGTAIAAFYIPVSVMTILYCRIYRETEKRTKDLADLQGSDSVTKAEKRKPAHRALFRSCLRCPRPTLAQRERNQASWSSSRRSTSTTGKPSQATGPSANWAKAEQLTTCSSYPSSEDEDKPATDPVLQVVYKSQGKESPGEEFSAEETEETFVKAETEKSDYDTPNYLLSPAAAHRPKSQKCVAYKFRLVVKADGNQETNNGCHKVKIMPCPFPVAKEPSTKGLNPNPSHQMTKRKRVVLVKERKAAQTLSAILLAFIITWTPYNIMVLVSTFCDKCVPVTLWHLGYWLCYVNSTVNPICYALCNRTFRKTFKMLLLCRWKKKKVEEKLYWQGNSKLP
How it was run: (§1)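 Competition binding with radiolabeled standard ligands, single 10 μM concentration, four replicates. Targets showing over 50% displacement were followed up with 11-point titrations in triplicate.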

[2] = target: T2, cloned human or rodent CNS receptors, channels, and transporters (PDSP panel) (Homo sapiens, UniProt P14416); settings: Receptor D2, primary assay, 10 μM
T2 construct: expressed in transfected cells
T2 sequence (P14416 whole entry): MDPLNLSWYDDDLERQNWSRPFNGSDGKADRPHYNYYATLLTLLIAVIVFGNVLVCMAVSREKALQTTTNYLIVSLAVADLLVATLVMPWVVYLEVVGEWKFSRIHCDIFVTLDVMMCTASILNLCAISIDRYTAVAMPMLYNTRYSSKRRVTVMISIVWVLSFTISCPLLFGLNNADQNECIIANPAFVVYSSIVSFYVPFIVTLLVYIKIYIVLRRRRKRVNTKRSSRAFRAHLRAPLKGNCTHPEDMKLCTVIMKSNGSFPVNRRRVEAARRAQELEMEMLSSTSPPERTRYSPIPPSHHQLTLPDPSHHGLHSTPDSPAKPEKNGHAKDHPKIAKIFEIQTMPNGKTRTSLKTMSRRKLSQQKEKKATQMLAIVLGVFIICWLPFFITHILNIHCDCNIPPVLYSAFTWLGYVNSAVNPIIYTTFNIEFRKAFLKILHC
How it was run: as §1

[3] = target: T3, cloned human or rodent CNS receptors, channels, and transporters (PDSP panel) (Homo sapiens, UniProt P20309); settings: Receptor M3, primary assay, 10 μM
T3 construct: expressed in transfected cells
T3 sequence (P20309 whole entry): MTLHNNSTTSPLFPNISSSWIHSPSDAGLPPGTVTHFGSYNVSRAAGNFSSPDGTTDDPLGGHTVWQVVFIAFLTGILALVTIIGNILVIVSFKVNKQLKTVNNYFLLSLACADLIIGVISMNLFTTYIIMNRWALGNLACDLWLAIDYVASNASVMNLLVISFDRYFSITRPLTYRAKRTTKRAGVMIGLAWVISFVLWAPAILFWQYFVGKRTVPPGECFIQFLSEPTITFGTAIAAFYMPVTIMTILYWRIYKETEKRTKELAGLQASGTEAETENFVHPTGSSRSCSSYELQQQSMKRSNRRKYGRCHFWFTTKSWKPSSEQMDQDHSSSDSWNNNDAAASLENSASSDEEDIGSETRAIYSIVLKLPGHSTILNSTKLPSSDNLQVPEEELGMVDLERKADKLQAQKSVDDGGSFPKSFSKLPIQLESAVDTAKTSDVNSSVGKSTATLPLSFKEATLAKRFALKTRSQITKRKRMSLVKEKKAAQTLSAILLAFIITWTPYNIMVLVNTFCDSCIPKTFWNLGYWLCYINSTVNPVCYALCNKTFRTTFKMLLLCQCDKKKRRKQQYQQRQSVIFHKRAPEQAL
How it was run: as §1

[4] = target: T4, cloned human or rodent CNS receptors, channels, and transporters (PDSP panel) (Homo sapiens, UniProt P28566); settings: Receptor 5-HT1E, primary assay, 10 μM
T4 construct: expressed in transfected cells
T4 sequence (P28566 whole entry): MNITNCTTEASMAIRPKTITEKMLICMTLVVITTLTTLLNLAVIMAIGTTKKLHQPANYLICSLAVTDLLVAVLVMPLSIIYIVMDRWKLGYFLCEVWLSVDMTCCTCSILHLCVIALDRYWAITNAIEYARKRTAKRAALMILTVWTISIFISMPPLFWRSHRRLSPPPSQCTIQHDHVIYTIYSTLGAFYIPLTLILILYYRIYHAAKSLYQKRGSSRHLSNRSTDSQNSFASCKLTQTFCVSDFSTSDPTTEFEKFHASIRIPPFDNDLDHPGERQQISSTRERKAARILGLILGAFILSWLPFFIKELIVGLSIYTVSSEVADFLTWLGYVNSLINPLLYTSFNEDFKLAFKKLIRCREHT
How it was run: as §1

[5] = target: T5, cloned human or rodent CNS receptors, channels, and transporters (PDSP panel) (Homo sapiens, UniProt P35367); settings: Receptor H1, primary assay, 10 μM
T5 construct: expressed in transfected cells
T5 sequence (P35367 whole entry): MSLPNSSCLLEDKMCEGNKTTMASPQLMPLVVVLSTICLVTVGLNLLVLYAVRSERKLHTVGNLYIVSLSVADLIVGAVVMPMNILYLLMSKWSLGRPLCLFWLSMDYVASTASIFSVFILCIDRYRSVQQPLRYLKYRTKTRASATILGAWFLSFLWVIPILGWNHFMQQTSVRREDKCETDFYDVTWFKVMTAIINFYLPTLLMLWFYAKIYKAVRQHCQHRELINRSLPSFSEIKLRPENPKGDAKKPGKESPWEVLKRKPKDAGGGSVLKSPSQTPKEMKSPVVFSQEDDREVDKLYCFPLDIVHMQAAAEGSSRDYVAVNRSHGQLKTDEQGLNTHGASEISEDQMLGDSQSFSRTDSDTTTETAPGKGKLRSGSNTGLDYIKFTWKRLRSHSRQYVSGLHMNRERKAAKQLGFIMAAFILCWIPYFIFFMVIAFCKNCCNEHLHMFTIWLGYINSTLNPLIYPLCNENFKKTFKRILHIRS
How it was run: as §1

[6] = target: T6, cloned human or rodent CNS receptors, channels, and transporters (PDSP panel) (Homo sapiens, UniProt P35372); settings: Receptor MOR, primary assay, 10 μM
T6 construct: expressed in transfected cells
T6 sequence (P35372 whole entry): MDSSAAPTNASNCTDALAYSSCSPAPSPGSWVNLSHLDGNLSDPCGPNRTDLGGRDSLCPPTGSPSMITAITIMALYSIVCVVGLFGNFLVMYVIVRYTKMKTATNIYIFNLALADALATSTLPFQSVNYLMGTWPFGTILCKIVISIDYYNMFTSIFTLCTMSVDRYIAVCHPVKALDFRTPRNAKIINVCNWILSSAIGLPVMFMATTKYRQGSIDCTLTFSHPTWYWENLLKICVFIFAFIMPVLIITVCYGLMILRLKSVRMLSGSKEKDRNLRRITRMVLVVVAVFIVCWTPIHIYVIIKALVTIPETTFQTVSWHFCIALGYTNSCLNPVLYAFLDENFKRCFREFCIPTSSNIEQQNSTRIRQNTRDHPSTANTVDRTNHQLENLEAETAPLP
How it was run: as §1

[7] = target: T7, cloned human or rodent CNS receptors, channels, and transporters (PDSP panel) (Homo sapiens, UniProt Q01959); settings: Receptor DAT, primary assay, 10 μM
T7 construct: expressed in transfected cells
T7 sequence (Q01959 whole entry): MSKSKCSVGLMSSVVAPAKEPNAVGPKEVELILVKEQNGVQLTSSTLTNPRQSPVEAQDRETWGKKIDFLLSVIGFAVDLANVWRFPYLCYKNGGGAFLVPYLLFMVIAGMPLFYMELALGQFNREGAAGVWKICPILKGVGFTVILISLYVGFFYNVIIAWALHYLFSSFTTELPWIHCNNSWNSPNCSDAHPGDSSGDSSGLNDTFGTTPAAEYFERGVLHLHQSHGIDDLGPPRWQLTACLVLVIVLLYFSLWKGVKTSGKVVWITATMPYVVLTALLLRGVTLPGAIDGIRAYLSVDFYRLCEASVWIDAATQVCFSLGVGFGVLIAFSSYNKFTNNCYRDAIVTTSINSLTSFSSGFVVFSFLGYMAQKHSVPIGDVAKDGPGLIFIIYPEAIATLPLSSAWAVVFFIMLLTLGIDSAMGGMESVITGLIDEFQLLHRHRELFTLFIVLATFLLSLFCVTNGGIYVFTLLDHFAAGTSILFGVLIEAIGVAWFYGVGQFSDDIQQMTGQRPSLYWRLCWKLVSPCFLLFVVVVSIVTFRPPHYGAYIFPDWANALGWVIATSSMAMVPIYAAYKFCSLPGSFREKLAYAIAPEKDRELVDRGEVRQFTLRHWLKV
How it was run: as §1

[8] = test system: cloned human or rodent CNS receptors, channels, and transporters (PDSP panel); settings: 10 μM; for Inhibition 1 / Inhibition 2 / Inhibition 3 / Inhibition 4 / Mean %: primary assay; for Mean %: mean of Inhibition 1-4
How it was run: as §1

Cl.NC(=O)c1cnc(N[C@@H]2CCCC[C@@H]2N)nc1Nc1cccc(-n2nccn2)c1 [UNC10302682A, P505-15 (PRT06207 HCl)]
Inhibition 1 [1]: 25.92% | Inhibition 2 [1]: 13.95% | Inhibition 3 [1]: 6.2% | Inhibition 4 [1]: -1.55% | Mean % ([1]; mean of Inhibition 1-4): 11.13% | Inhibition 1 [2]: 17.73% | Inhibition 2 [2]: -4.34% | Inhibition 3 [2]: 3.54% | Inhibition 4 [2]: 5.97% | Mean % ([2]; mean of Inhibition 1-4): 5.73% | Inhibition 1 [3]: 28.46% | Inhibition 2 [3]: 2.32% | Inhibition 3 [3]: 15.74% | Inhibition 4 [3]: 10.41% | Mean % ([3]; mean of Inhibition 1-4): 14.23% | Inhibition 1 [4]: -23.96% | Inhibition 2 [4]: -26.62% | Inhibition 3 [4]: 0% | Inhibition 4 [4]: -50.26% | Mean % ([4]; mean of Inhibition 1-4): -25.21% | Inhibition 1 [5]: 100.99% | Inhibition 2 [5]: 95.9% | Inhibition 3 [5]: 86.08% | Inhibition 4 [5]: 60.28% | Mean % ([5]; mean of Inhibition 1-4): 85.81% | Inhibition 1 [6]: 27.09% | Inhibition 2 [6]: 20.29% | Inhibition 3 [6]: 17.6% | Inhibition 4 [6]: 20.19% | Mean % ([6]; mean of Inhibition 1-4): 21.29% | Inhibition 1 [7]: 65.15% | Inhibition 2 [7]: 70.33% | Inhibition 3 [7]: 66.98% | Inhibition 4 [7]: 72.6% | Mean % ([7]; mean of Inhibition 1-4): 68.77% | Affinity for receptors in primary assays ([8]; 46-47 primary binding assays): possessed affinity for the most receptors in primary assays | Inhibition 1 ([8]; Receptor Alpha1A): 22.91% | Inhibition 2 ([8]; Receptor Alpha1A): 19.17% | Inhibition 3 ([8]; Receptor Alpha1A): 28.52% | Inhibition 4 ([8]; Receptor Alpha1A): 1.22% | Mean % ([8]; Receptor Alpha1A): 17.96% | Inhibition 1 ([8]; Receptor Alpha2A): 21.38% | Inhibition 2 ([8]; Receptor Alpha2A): 23.31% | Inhibition 3 ([8]; Receptor Alpha2A): 19.6% | Inhibition 4 ([8]; Receptor Alpha2A): 16.75% | Mean % ([8]; Receptor Alpha2A): 20.26% | Inhibition 1 ([8]; Receptor Alpha2C): 22.11% | Inhibition 2 ([8]; Receptor Alpha2C): 17.82% | Inhibition 3 ([8]; Receptor Alpha2C): 14.79% | Inhibition 4 ([8]; Receptor Alpha2C): 26.53% | Mean % ([8]; Receptor Alpha2C): 20.31% | Inhibition 1 ([8]; Receptor BZP Rat Brain Site): 6.42% | Inhibition 2 ([8]; Receptor BZP Rat Brain Site): 10.02% | Inhibition 3 ([8]; Receptor BZP Rat Brain Site): 1.11% | Inhibition 4 ([8]; Receptor BZP Rat Brain Site): 13.06% | Mean % ([8]; Receptor BZP Rat Brain Site): 7.65% | Inhibition 1 ([8]; Receptor DOR): -18.41% | Inhibition 2 ([8]; Receptor DOR): -4.86% | Inhibition 3 ([8]; Receptor DOR): 0.02% | Inhibition 4 ([8]; Receptor DOR): 6.53% | Mean % ([8]; Receptor DOR): -4.18% | Inhibition 1 ([8]; Receptor H3): 29.95% | Inhibition 2 ([8]; Receptor H3): 45.1% | Inhibition 3 ([8]; Receptor H3): 59.09% | Inhibition 4 ([8]; Receptor H3): 65.79% | Mean % ([8]; Receptor H3): 49.98% | Inhibition 1 ([8]; Receptor H4): 11.34% | Inhibition 2 ([8]; Receptor H4): 13.02% | Inhibition 3 ([8]; Receptor H4): 28.62% | Inhibition 4 ([8]; Receptor H4): 77.11% | Mean % ([8]; Receptor H4): 32.52% | Inhibition 1 ([8]; Receptor Sigma 1): 15.02% | Inhibition 2 ([8]; Receptor Sigma 1): 35.34% | Inhibition 3 ([8]; Receptor Sigma 1): 14.82% | Inhibition 4 ([8]; Receptor Sigma 1): 27.31% | Mean % ([8]; Receptor Sigma 1): 23.12% | Inhibition 1 ([8]; Receptor Sigma 2): 57.01% | Inhibition 2 ([8]; Receptor Sigma 2): 56.94% | Inhibition 3 ([8]; Receptor Sigma 2): 67.96% | Inhibition 4 ([8]; Receptor Sigma 2): 81.11% | Mean % ([8]; Receptor Sigma 2): 65.76%
